Results published in paper PMC10035951, “Selenium-analogs based on natural sources as cancer-associated carbonic anhydrase isoforms IX and XII inhibitors” (Journal of Enzyme Inhibition and Medicinal Chemistry, 2023).
Read-outs that look alike come from different tables or passages of the source.

Assays:
[1] = target: T1, hCA I (Homo sapiens, UniProt P00915); test: CA catalysed CO2 hydration, stopped-flow inhibition; format: biochemical
T1 construct: made in house
Procedure: (§1) The uncatalyzed rates were determined in the same manner and subtracted from the total observed rates. Stock solutions of inhibitor (0.1 mM) were prepared in distilled − deionized water and dilutions up to 0.01 nM were done thereafter with the assay buffer. Inhibitor and enzyme solutions were preincubated together for 15 min at room temperature before assay to allow for the formation of the E − I complex. The inhibition constants were obtained by nonlinear least-squares methods using PRISM 3 and the Cheng − Prusoff equation, as reported earlier,[39]^,[40] and represent the mean from at least three different determinations. […] All human CA (hCA) isoforms were recombinant ones obtained in-house as reported earlier.[41]^,[42]

[2] = target: T2, hCA II (Homo sapiens, UniProt P00918); test: as above; format: biochemical
T2 construct: made in house
Procedure: as §1

[3] = target: T3, hCA IX (Homo sapiens, UniProt Q16790); test: as above; format: biochemical; settings: for Ki: recombinant hCA IX, stopped-flow CO2 hydration, 15 min preincubation
T3 construct: made in house
Procedure: as §1

[4] = target: T4, hCA XII (Homo sapiens, UniProt O43570); test: as above; format: biochemical
T4 construct: made in house
T4 sequence (O43570 25-354): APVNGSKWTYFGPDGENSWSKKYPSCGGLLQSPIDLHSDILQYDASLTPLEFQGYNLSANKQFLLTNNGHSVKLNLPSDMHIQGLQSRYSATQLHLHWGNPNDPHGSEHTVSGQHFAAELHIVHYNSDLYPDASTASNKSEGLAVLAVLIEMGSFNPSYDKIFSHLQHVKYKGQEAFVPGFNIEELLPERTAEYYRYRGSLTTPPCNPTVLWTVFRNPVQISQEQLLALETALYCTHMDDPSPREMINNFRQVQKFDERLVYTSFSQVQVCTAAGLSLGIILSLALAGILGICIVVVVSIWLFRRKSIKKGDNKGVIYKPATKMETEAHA
Procedure: An Applied Photophysics stopped-flow instrument has been used for assaying the CA catalysed CO2 hydration activity.[38] Phenol red (at a concentration of 0.2 mM) has been used as an indicator, working at the absorbance maximum of 557 nm, with 20 mM Hepes (pH 7.5) as a buffer and 20 mM Na2SO4 (for maintaining constant the ionic strength), following the initial rates of the CA-catalysed CO2 hydration reaction for a period of 10–100 s. The CO2 concentrations ranged from 1.7 to 17 mM for the determination of the kinetic parameters and inhibition constants. […]. The uncatalyzed rates were determined in the same manner and subtracted from the total observed rates. Stock solutions of inhibitor (0.1 mM) were prepared in distilled − deionized water and dilutions up to 0.01 nM were done thereafter with the assay buffer. Inhibitor and enzyme solutions were preincubated together for 15 min at room temperature before assay to allow for the formation of the E − I complex. The inhibition constants were obtained by nonlinear least-squares methods using PRISM 3 and the Cheng − Prusoff equation, as reported earlier,[39]^,[40] and represent the mean from at least three different determinations. The enzyme concentrations were in the range 3–11 nM. All human CA (hCA) isoforms were recombinant ones obtained in-house as reported earlier.[41]^,[42]

[5] = system: hCA isoforms I, II, VA, IX, and XII; test: CA inhibition, summary statements over all tested isoforms; format: biochemical, human; settings: for isoform selectivity (in words): from the Ki values of Table 1; for Ki: all CA isoforms tested for series b, read-out: Ki range over all CA isoforms
Procedure: An Applied Photophysics stopped-flow instrument has been used for assaying the CA catalysed CO2 hydration activity.[38] Phenol red (at a concentration of 0.2 mM) has been used as an indicator, working at the absorbance maximum of 557 nm, with 20 mM Hepes (pH 7.5) as a buffer and 20 mM Na2SO4 (for maintaining constant the ionic strength), following the initial rates of the CA-catalysed CO2 hydration reaction for a period of 10–100 s. The CO2 concentrations ranged from 1.7 to 17 mM for the determination of the kinetic parameters and inhibition constants. For each inhibitor, at least six traces of the initial 5 − 10% of the reaction have been used for determining the initial velocity. The uncatalyzed rates were determined in the same manner and subtracted from the total observed rates. Stock solutions of inhibitor (0.1 mM) were prepared in distilled − deionized water and dilutions up to 0.01 nM were done thereafter with the assay buffer. Inhibitor and enzyme solutions were preincubated together for 15 min at room temperature before assay to allow for the formation of the E − I complex. The inhibition constants were obtained by nonlinear least-squares methods using PRISM 3 and the Cheng − Prusoff equation, as reported earlier,[39]^,[40] and represent the mean from at least three different determinations. The enzyme concentrations were in the range 3–11 nM. All human CA (hCA) isoforms were recombinant ones obtained in-house as reported earlier.[41]^,[42]

[6] = recombinant hCA I, stopped-flow CO2 hydration, 15 min preincubation, read-out: Ki hCA I
[7] = recombinant hCA II, stopped-flow CO2 hydration, 15 min preincubation, read-out: Ki hCA II
[8] = recombinant hCA XII, stopped-flow CO2 hydration, 15 min preincubation, read-out: Ki hCA XII

T1 sequence (P00915 whole entry): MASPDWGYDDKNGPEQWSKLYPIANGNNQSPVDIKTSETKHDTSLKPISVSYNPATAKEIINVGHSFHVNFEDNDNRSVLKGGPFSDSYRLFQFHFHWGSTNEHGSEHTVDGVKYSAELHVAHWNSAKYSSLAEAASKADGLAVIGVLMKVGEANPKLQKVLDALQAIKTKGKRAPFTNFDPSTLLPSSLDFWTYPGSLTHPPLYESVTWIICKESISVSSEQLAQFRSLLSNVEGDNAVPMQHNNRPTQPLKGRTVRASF

| Ki [1, 6] [µM] | Ki [2, 7] [µM] | Ki [3] [µM] | Compound | Ki [4, 8] [µM] | other results |
| --- | --- | --- | --- | --- | --- |
| > 100 | > 100 | > 100 | C=CC[Se]C(=O)c1cccs1 [Compound 9a] |  |  |
| > 100 | > 100 | > 100 | C=CC[Se]C(=O)c1cccnc1 [Compound 7a] |  |  |
| > 100 | > 100 | > 100 | C=CC[Se]C(=O)c1ccno1 [Compound 12a] |  |  |
| > 100 | > 100 | > 100 | C=CC[Se]C(=O)c1ccco1 [Compound 11a] |  |  |
| > 100 | > 100 | > 100 | C=CC[Se]C(=O)[C@@H](C)c1ccc2cc(OC)ccc2c1 [Compound 16a] |  |  |
| > 100 | > 100 | > 100 | C=CC[Se]C(=O)c1sccc1Cl [Compound 10a] |  |  |
| 9.2 | 46.6 | > 100 | C#CC[Se]C(=O)c1cccs1 [Compound 9b] | 97 |  |
| > 100 | > 100 | > 100 | C=CC[Se]C(=O)c1ccccc1Cl [Compound 3a] |  |  |
| > 100 | > 100 | > 100 | C=CC[Se]C(=O)C12CC3CC(CC(C3)C1)C2 [Compound 1a] |  |  |
| 8.5 | 49.9 | 7.1 | C#CC[Se]C(=O)c1ccco1 [Compound 11b] | 59.6 |  |
| > 100 | > 100 | > 100 | C=CC[Se]C(=O)c1ccccc1 [Compound 2a] |  |  |
| > 100 | > 100 | > 100 | C=CC[Se]C(=O)C=Cc1ccccc1 [Compound 5a] |  |  |
| > 100 | > 100 | > 100 | C=CC[Se]C(=O)c1ccccc1O [Compound 13a] |  |  |
| 31.3 | 53.5 | 67.7 | C#CC[Se]C(=O)c1ccc2c(c1)OCO2 [Compound 4b] | > 100 |  |
| > 100 | > 100 | > 100 | C=CC[Se]C(=O)c1ccccc1OC(C)=O [Compound 14a] |  |  |
| > 100 | 88.5 | > 100 | C#CC[Se]C(=O)c1sccc1Cl [Compound 10b] | 98.5 |  |
| 30.2 | 66.3 | 38.2 | C#CC[Se]C(=O)c1cccnc1 [Compound 7b] | 85.1 |  |
| 5 | 55.3 | > 100 | C#CC[Se]C(=O)c1ccccc1OC(C)=O [Compound 14b] | 89.7 |  |
| 24.1 | 42.7 | 79.3 | C#CC[Se]C(=O)C=Cc1ccccc1 [Compound 5b] | > 100 |  |
| > 100 | > 100 | 89.4 | C=CC[Se]C(=O)c1cccnc1Cl [Compound 8a] |  |  |

| Compound | Ki [1, 6] [µM] | Ki [2, 7] [µM] | Ki [3] [µM] | Ki [4, 8] [µM] | other results |
| --- | --- | --- | --- | --- | --- |
| C#CC[Se]C(=O)c1ccccc1Nc1cccc(C)c1C [Compound 18b] | > 100 | 4.5 | 9.6 | 46.3 | fold greater inhibition potency for CA II than for CA I ([2]; CA II versus CA I): 22 fold |
| C#CC[Se]C(=O)C(C)c1ccc(CC(C)C)cc1 (stereo not shown) [Compound 15b] | 77.1 | > 100 | 47.7 | > 100 | isoform selectivity (in words) [5]: selectivity for cytosolic CA I isoform and tumour-associated CA IX |
| C#CC[Se]C(=O)c1ccccc1Nc1cccc(C(F)(F)F)c1 [Compound 19b] | > 100 | > 100 | 9.5 | > 100 | isoform selectivity (in words) [5]: selectivity for tumour-associated isoform IX |
| C#CC[Se]C(=O)c1ccccc1Cl [Compound 3b] |  |  | 41.6 |  | Ki [1]: 42.1 µM; Ki [2]: > 100 µM; Ki [4]: 28.8 µM |
| C#CC[Se]C(=O)[C@@H](C)c1ccc2cc(OC)ccc2c1 [Compound 16b] | 91.5 | > 100 | 24.7 | > 100 | isoform selectivity (in words) [5]: selectivity for cytosolic CA I isoform and tumour-associated CA IX |
| C#CC[Se]C(=O)c1ccno1 [Compound 12b] | 58.4 | > 100 | 22.4 | 66.6 | decrease of inhibitory capacity on substitution of furan ring (11b) by isoxazole ([1]; CA I, Ki ratio versus 11b): ~7 fold |
| C#CC[Se]C(=O)CCc1ccccc1 [Compound 6b] |  |  | 25 |  | Ki [1]: 3.1 µM; times more potent than analog without the spacer (2b) ([1]; CA I, Ki ratio versus 2b): 26 times; times more potent than analog with the double-bond spacer (5b) ([1]; CA I, Ki ratio versus 5b): 7.7 times; Ki [2]: 9.5 µM; Ki [4]: 7 µM; Ki [5]: 2.2 to 48.5 µM |
| C#CC[Se]C(=O)c1ccccc1 [Compound 2b] | 80.5 | > 100 | 7.8 | 55.7 | times higher inhibition of CA IX than of isoform I ([3]; CA IX versus CA I): ~13 times; times higher inhibition of CA IX than of isoform II ([3]; CA IX versus CA II): ~10 times |
| C#CC[Se]C(=O)c1cccnc1Cl [Compound 8b] | 2.2 | 8.6 | 48.5 | 9.6 | increase of inhibitory activity compared to unsubstituted pyridine ([1]; CA I, Ki ratio versus 7b): 13.7 times; Ki [5]: 2.2 to 48.5 µM |
| C#CC[Se]C(=O)C12CC3CC(CC(C3)C1)C2 [Compound 1b] | > 100 | > 100 | 9.1 | 28.4 | isoform selectivity (in words) [5]: selectivity for tumour-associated isoforms IX and XII |
| C#CC[Se]C(=O)Cc1c(C)n(C(=O)c2ccc(Cl)cc2)c2ccc(OC)cc12 [Compound 17b] | > 100 | > 100 | 58.5 | > 100 | isoform selectivity (in words) [5]: selectivity for tumour-associated isoform IX |
| C#CC[Se]C(=O)c1ccccc1O [Compound 13b] | 23.3 | > 100 | 54.8 | > 100 | isoform selectivity (in words) [5]: selectivity for cytosolic CA I isoform and tumour-associated CA IX |
